# According to patent US20100285959A1, “HERBICIDAL MIXTURES” (priority 2006, published 2010):
# Tests used:
# [1] = tested on: common lambsquarters (CHEAL); experiment: Test 23 growth chamber, postemergence; format: in vivo, Chenopodium album; settings: 21 DAA; 2,4-D or MCPA alone 250 g a.i./ha
# Description: A test was conducted to evaluate the effects on winter barley (HORVW, Hordeum vulgare L.), winter wheat (TRZAW, Triticum aestivum L.), and several weed species of mixtures of Compound 2 with the commercial herbicides (2,4-dichlorophenoxy)acetic acid (2,4-D) and (4-chloro-2-methylphenoxy)acetic acid (MCPA), auxin mimics. […] Plants were treated postemergence at the 2-4 leaf growth stage, and each treatment was replicated three times. […] Plants were watered as needed. […] Results are means of the three replicates.
# [2] = tested on: alexandergrass (BRAPL); experiment: Test 11 field trial, preemergence; format: in vivo, Brachiaria plantaginea; design: scale not given here; settings: alone or + atrazine 1500 or metolachlor 2500
# Source text: Corn seeds (hybrid ‘Pioneer 3041’) were planted in mid spring season, 5 cm deep in a clay soil having 2.6% organic matter and a pH of 5.6. Plots were 8 m long by 1.5 m wide with rows spaced 80 cm apart. Seeds were spaced 15 cm apart within the rows. The field was managed using conventional tillage practices. […] Treatments consisted of Compound 2 or
# Goosegrass was not evaluated 16 or 91 days after application.
# [3] = tested on: large crabgrass (DIGSA); experiment: Test 5 field trial, postemergence; format: in vivo, Digitaria sanguinalis; settings: atrazine 1120, glufosinate 470 or glyphosate 1120 g a.i./ha alone
# Source text: Corn seeds (hybrid ‘Pioneer 38H69’) were planted in mid spring season, 5.1 cm deep in a silty clay loam soil having 3% organic matter and a pH of 6.5. Plots were 9.1 m long by 3.0 m wide with rows spaced 76 cm apart. The field was managed using conventional tillage practices. […] All treatments included a surfactant except glufosinate treatments, both alone and in combination. […] Results are summarized in Table 5 and are the means of the three replicates.
# [4] = tested on: common lambsquarters (CHEAL); experiment: Test 6 field trial, postemergence; format: in vivo, Chenopodium album; settings: 1120 g a.i./ha
# Source text: (§1) Corn seeds (hybrid ‘Pioneer 35Y62’) were planted in mid spring season, 3.8 cm deep in a silt loam soil having 4% organic matter and a pH of 5.8. Plots were 10.7 m long by 1.5 m wide with rows spaced 76 cm apart. Seeds were spaced 18 cm apart within the rows. The field was managed using conventional tillage practices. […] All treatments included a surfactant except glufosinate treatments, both alone and in combination. […] Results are summarized in Table 6 and are the means of the three replicates.
# [5] = tested on: Pennsylvania smartweed (POLPY); experiment: Test 6 field trial, postemergence; format: in vivo, Polygonum pensylvanicum; settings: 1120 g a.i./ha
# Source text: as §1
smiles,measurement,setting,value
"O=C(O)COc1ccc(Cl)cc1Cl [2,4-D, (2,4-dichlorophenoxy)acetic acid]",Postemergence CHEAL Obs,[1],58
"Nc1nc(C2CC2)nc(C(=O)O)c1Cl [Compound 1, 6-amino-5-chloro-2-cyclopropyl-4-pyrimidinecarboxylic acid]",BRAPL Obs,"[2]; 16 DAA, Cpd 2/Cpd 1 at 62 g a.i./ha",40
same,BRAPL Obs,"[2]; 16 DAA, Cpd 2/Cpd 1 at 125 g a.i./ha",40
same,BRAPL Obs,"[2]; 30 DAA, Cpd 2/Cpd 1 at 62 g a.i./ha",20
same,BRAPL Obs,"[2]; 30 DAA, Cpd 2/Cpd 1 at 125 g a.i./ha",60
same,BRAPL Obs,"[2]; 44 DAA, Cpd 2/Cpd 1 at 62 g a.i./ha",0
same,BRAPL Obs,"[2]; 44 DAA, Cpd 2/Cpd 1 at 125 g a.i./ha",40
same,BRAPL Obs,"[2]; 62 DAA, Cpd 2/Cpd 1 at 62 g a.i./ha",0
same,BRAPL Obs,"[2]; 62 DAA, Cpd 2/Cpd 1 at 125 g a.i./ha",0
same,BRAPL Obs,"[2]; 91 DAA, Cpd 2/Cpd 1 at 62 g a.i./ha",0
same,BRAPL Obs,"[2]; 91 DAA, Cpd 2/Cpd 1 at 125 g a.i./ha",0
O=C(O)CNCP(=O)(O)O [Glyphosate],DIGSA Obs,[3]; 16 DAA,98%
same,DIGSA Obs,[3]; 31 DAA,95%
same,CHEAL Obs,[4]; 14 DAA,100%
same,CHEAL Obs,[4]; 28 DAA,100%
same,POLPY Obs,[5]; 14 DAA,84%
same,POLPY Obs,[5]; 28 DAA,91%
